Drawing on patent US10633419B2, “Immunomodulators” (BRISTOL-MYERS SQUIBB COMPANY, priority 2014, dated 2020), this text covers IC50 for twelve compounds.

Starred links: 1 amine or outer side, 2 acyl side, 3 side chain; linkers in the order of their positions; H or OH if unused. Positions of bridges follow the written chain, without caps; N, C: chain ends. Non-standard residues stand in square brackets, D forms with d. Residues, ends and D or L forms follow the SMILES beside them. Groups on a side chain read outwards from the residue. *: point of attachment. δOrn(Nα-Octadecanedioyl) = O=C(O)CCCCCCCCCCCCCCCCC(=O)N[C@@H](CCCN*)C(=O)O; Trp(1-CH2COOH) = N[C@@H](Cc1cn(CC(=O)O)c2ccccc12)C(=O)O; X9 = O=C(O)CCCCCCCCCCCCCCCCC(=O)N[C@@H](CCN*)C(=O)O; C18 diacid = O=C(O)CCCCCCCCCCCCCCCCC(=O)*; Phe(4-F) = N[C@@H](Cc1ccc(F)cc1)C(=O)O; γGlu = O=C(O)[C@H](CCC(=O)[*:2])N[*:1]; Hyp = O=C(O)[C@@H]1C[C@@H](O)CN1; NMeNle = CCCC[C@H](NC)C(=O)O; Pip = O=C(O)[C@@H]1CCCCN1; NMeA = CN[C@@H](C)C(=O)O; Dab = NCC[C@H](N)C(=O)O; Dap = NC[C@H](N)C(=O)O

T1 sequence (Q9NZQ7 with tags, fused parts or gaps): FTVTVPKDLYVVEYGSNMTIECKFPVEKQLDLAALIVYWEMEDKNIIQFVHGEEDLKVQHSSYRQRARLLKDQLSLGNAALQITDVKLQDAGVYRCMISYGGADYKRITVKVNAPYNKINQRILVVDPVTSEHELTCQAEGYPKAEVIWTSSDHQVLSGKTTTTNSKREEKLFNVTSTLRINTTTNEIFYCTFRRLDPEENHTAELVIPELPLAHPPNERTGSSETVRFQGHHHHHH

The first test concerns the target T1, PD-L1 (Homo sapiens, UniProt Q9NZQ7).
T1 construct: hPDL1(19-239)-TVMV-His; made in house; host or cells: HEK293T
In words: PD-1/PD-L1 Homogenous Time-Resolved Fluorescence (HTRF) binding assay (PD-1-Ig/PD-L1-His). Conditions: inhibition of PD-1-Ig binding to PD-L1-TVMV-His; value given as number; read-out: HTRF IC50. The procedure, abridged:
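HTRF competition in dPBS with 0.1% BSA and 0.05% Tween-20: 20 nM PD-1-Ig added after 15 min compound pre-incubation with 10 nM PD-L1-His, then another 15 min. Signal (665/620 nm) after 30 min with APC anti-His (20 nM) and Eu anti-Ig (1 nM).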
By IC50 is commonly meant the concentration that gives 50% inhibition. For the compound `CCCC[C@H]1C(=O)N(C)[C@@H](CCCC)C(=O)N[C@@H](CC(C)C)C(=O)N[C@H](C(=O)NCC(=O)N[C@@H](CCNC(=O)CC[C@H](NC(=O)CCCCCCCCCCCCCCCCC(=O)O)C(=O)O)C(=O)O)CSCC(=O)N[C@@H](Cc2ccc(F)cc2)C(=O)N2CCCC[C@H]2C(=O)N[C@@H](CC(=O)O)C(=O)N2CCC[C@H]2C(=O)N[C@@H](CN)C(=O)N[C@@H](CC(C)C)C(=O)N2C[C@H](O)C[C@H]2C(=O)N[C@@H](Cc2c[nH]c3ccccc23)C(=O)N[C@@H](CCN)C(=O)N[C@@H](Cc2cn(CC(=O)O)c3ccccc23)C(=O)N1C` [Example 13150] ({CH2CO}-[Phe(4-F)][Pip]DP[Dap]L[Hyp]W[Dab][Trp(1-CH2COOH)][NMeNle][NMeNle]LCG[Dab]([γGlu-C18 diacid])-OH; thioether N-14), the 50% inhibitory concentration (IC50) turned out to be 20.9 nM.

The test is the same for the next values; noted with them: inhibition of PD-1-Ig binding to PD-L1-TVMV-His; value given as range class; read-out: HTRF IC50.
`CCCC[C@H]1C(=O)N(C)[C@@H](CCCC)C(=O)N[C@@H](CC(C)C)C(=O)N[C@H](C(=O)NCC(=O)N[C@@H](CCC(=O)NCC[C@H](NC(=O)CCCCCCCCCCCCCCCCC(=O)O)C(=O)O)C(=O)O)CSCC(=O)N[C@@H](Cc2ccc(O)cc2)C(=O)N2CCCC[C@H]2C(=O)N[C@@H](CC(N)=O)C(=O)N2CCC[C@H]2C(=O)N[C@@H](CN)C(=O)N[C@@H](CC(C)C)C(=O)N2C[C@H](O)C[C@H]2C(=O)N[C@@H](Cc2c[nH]c3ccccc23)C(=O)N[C@@H](CCN)C(=O)N[C@@H](Cc2cn(CC(=O)O)c3ccccc23)C(=O)N1C` [Example 13143] ({CH2CO}-Y[Pip]NP[Dap]L[Hyp]W[Dab][Trp(1-CH2COOH)][NMeNle][NMeNle]LCGE(X9)-OH; thioether N-14): the half-maximal inhibitory concentration (IC50) is 100 to 1600 nM.
Turning to `CCCC[C@H]1C(=O)N(C)[C@@H](CCCC)C(=O)N[C@@H](CC(C)C)C(=O)N[C@H](C(=O)NCC(=O)N[C@@H](CC(=O)NCC[C@H](NC(=O)CCCCCCCCCCCCCCCCC(=O)O)C(=O)O)C(=O)O)CSCC(=O)N[C@@H](Cc2ccc(O)cc2)C(=O)N2CCCC[C@H]2C(=O)N[C@@H](CC(N)=O)C(=O)N2CCC[C@H]2C(=O)N[C@@H](CN)C(=O)N[C@@H](CC(C)C)C(=O)N2C[C@H](O)C[C@H]2C(=O)N[C@@H](Cc2c[nH]c3ccccc23)C(=O)N[C@@H](CCN)C(=O)N[C@@H](Cc2cn(CC(=O)O)c3ccccc23)C(=O)N1C` [Example 13144] ({CH2CO}-Y[Pip]NP[Dap]L[Hyp]W[Dab][Trp(1-CH2COOH)][NMeNle][NMeNle]LCGD(X9)-OH; thioether N-14), the 50% inhibitory concentration (IC50) fell in the range of 10 to 99 nM.
As for `CCCC[C@H]1C(=O)N(C)[C@@H](CCCC)C(=O)N[C@@H](CC(C)C)C(=O)N[C@H](C(=O)NCC(=O)N[C@@H](CC(=O)NCCC[C@H](NC(=O)CCCCCCCCCCCCCCCCC(=O)O)C(=O)O)C(=O)O)CSCC(=O)N[C@@H](Cc2ccc(F)cc2)C(=O)N2CCCC[C@H]2C(=O)N[C@@H](CC(=O)O)C(=O)N2CCC[C@H]2C(=O)N[C@@H](CN)C(=O)N[C@@H](CC(C)C)C(=O)N2C[C@H](O)C[C@H]2C(=O)N[C@@H](Cc2c[nH]c3ccccc23)C(=O)N[C@@H](CCN)C(=O)N[C@@H](Cc2cn(CC(=O)O)c3ccccc23)C(=O)N1C` [Example 13145] ({CH2CO}-[Phe(4-F)][Pip]DP[Dap]L[Hyp]W[Dab][Trp(1-CH2COOH)][NMeNle][NMeNle]LCGD(δOrn(Nα-Octadecanedioyl))-OH; thioether N-14), the IC50 lay within 10 to 99 nM.
The same measure, in the same setting: next, `CCCC[C@H]1C(=O)N(C)[C@@H](CCCC)C(=O)N[C@@H](CC(C)C)C(=O)N[C@H](C(=O)NCC(=O)N[C@@H](CCC(=O)NCCC[C@H](NC(=O)CCCCCCCCCCCCCCCCC(=O)O)C(=O)O)C(=O)O)CSCC(=O)N[C@@H](Cc2ccc(F)cc2)C(=O)N2CCCC[C@H]2C(=O)N[C@@H](CC(=O)O)C(=O)N2CCC[C@H]2C(=O)N[C@@H](CN)C(=O)N[C@@H](CC(C)C)C(=O)N2C[C@H](O)C[C@H]2C(=O)N[C@@H](Cc2c[nH]c3ccccc23)C(=O)N[C@@H](CCN)C(=O)N[C@@H](Cc2cn(CC(=O)O)c3ccccc23)C(=O)N1C` [Example 13146] ({CH2CO}-[Phe(4-F)][Pip]DP[Dap]L[Hyp]W[Dab][Trp(1-CH2COOH)][NMeNle][NMeNle]LCGE(δOrn(Nα-Octadecanedioyl))-OH; thioether N-14): 10 to 99 nM; `CCCC[C@H]1C(=O)N(C)[C@@H](CCCC)C(=O)N[C@@H](CC(C)C)C(=O)N[C@H](C(=O)NCC(=O)N[C@@H](CC(=O)NCC[C@H](NC(=O)CCCCCCCCCCCCCCCCC(=O)O)C(=O)O)C(=O)O)CSCC(=O)N[C@@H](Cc2ccc(F)cc2)C(=O)N2CCCC[C@H]2C(=O)N[C@@H](CC(=O)O)C(=O)N2CCC[C@H]2C(=O)N[C@@H](CN)C(=O)N[C@@H](CC(C)C)C(=O)N2C[C@H](O)C[C@H]2C(=O)N[C@@H](Cc2c[nH]c3ccccc23)C(=O)N[C@@H](CCN)C(=O)N[C@@H](Cc2cn(CC(=O)O)c3ccccc23)C(=O)N1C` [Example 13147] ({CH2CO}-[Phe(4-F)][Pip]DP[Dap]L[Hyp]W[Dab][Trp(1-CH2COOH)][NMeNle][NMeNle]LCGD(X9)-OH; thioether N-14): 100 to 1600 nM; `CCCC[C@H]1C(=O)N(C)[C@@H](CCCC)C(=O)N[C@@H](CC(C)C)C(=O)N[C@H](C(=O)NCC(=O)N[C@@H](CCC(=O)NCC[C@H](NC(=O)CCCCCCCCCCCCCCCCC(=O)O)C(=O)O)C(=O)O)CSCC(=O)N[C@@H](Cc2ccc(F)cc2)C(=O)N2CCCC[C@H]2C(=O)N[C@@H](CC(=O)O)C(=O)N2CCC[C@H]2C(=O)N[C@@H](CN)C(=O)N[C@@H](CC(C)C)C(=O)N2C[C@H](O)C[C@H]2C(=O)N[C@@H](Cc2c[nH]c3ccccc23)C(=O)N[C@@H](CCN)C(=O)N[C@@H](Cc2cn(CC(=O)O)c3ccccc23)C(=O)N1C` [Example 13148] ({CH2CO}-[Phe(4-F)][Pip]DP[Dap]L[Hyp]W[Dab][Trp(1-CH2COOH)][NMeNle][NMeNle]LCGE(X9)-OH; thioether N-14): 10 to 99 nM.
Still for that read-out and setting: next, `CCCC[C@H]1C(=O)N(C)[C@@H](CCCC)C(=O)N[C@@H](CC(C)C)C(=O)N[C@H](C(=O)NCC(=O)N[C@@H](CCNC(=O)CC[C@H](NC(=O)CCCCCCCCCCCCCCCCC(=O)O)C(=O)O)C(=O)O)CSCC(=O)N[C@@H](Cc2ccc(O)cc2)C(=O)N2CCCC[C@H]2C(=O)N[C@@H](CC(N)=O)C(=O)N2CCC[C@H]2C(=O)N[C@@H](CN)C(=O)N[C@@H](CC(C)C)C(=O)N2C[C@H](O)C[C@H]2C(=O)N[C@@H](Cc2c[nH]c3ccccc23)C(=O)N[C@@H](CCN)C(=O)N[C@@H](Cc2cn(CC(=O)O)c3ccccc23)C(=O)N1C` [Example 13149] ({CH2CO}-Y[Pip]NP[Dap]L[Hyp]W[Dab][Trp(1-CH2COOH)][NMeNle][NMeNle]LCG[Dab]([γGlu-C18 diacid])-OH; thioether N-14): 10 to 99 nM; `CCCC[C@H]1C(=O)N(C)[C@@H](CCCC)C(=O)N[C@@H](CC(C)C)C(=O)N[C@H](C(=O)NCC(=O)N[C@@H](CCNC(=O)CC[C@H](NC(=O)CCCCCCCCCCCCCCCCC(=O)O)C(=O)O)C(=O)O)CSCC(=O)N[C@@H](Cc2ccc(OC)cc2)C(=O)N2CCCC[C@H]2C(=O)N[C@@H](CC(N)=O)C(=O)N2CCC[C@H]2C(=O)N[C@@H](Cc2c[nH]cn2)C(=O)N[C@@H](CC(C)C)C(=O)N2C[C@H](O)C[C@H]2C(=O)N[C@@H](Cc2c[nH]c3ccccc23)C(=O)N[C@@H](CCN)C(=O)N[C@@H](Cc2cn(CC(=O)O)c3ccccc23)C(=O)N1C` [Example 13151] ({CH2CO}-Y(Me)[Pip]NPHL[Hyp]W[Dab][Trp(1-CH2COOH)][NMeNle][NMeNle]LCG[Dab]([γGlu-C18 diacid])-OH; thioether N-14): 10 to 99 nM; `CCCC[C@H]1C(=O)N(C)[C@@H](CCCC)C(=O)N[C@@H](CC(C)C)C(=O)N[C@H](C(=O)NCC(=O)N[C@@H](CNC(=O)CC[C@H](NC(=O)CCCCCCCCCCCCCCCCC(=O)O)C(=O)O)C(=O)O)CSCC(=O)N[C@@H](Cc2ccc(O)cc2)C(=O)N2CCCC[C@H]2C(=O)N[C@@H](CC(N)=O)C(=O)N2CCC[C@H]2C(=O)N[C@@H](CN)C(=O)N[C@@H](CC(C)C)C(=O)N2C[C@H](O)C[C@H]2C(=O)N[C@@H](Cc2c[nH]c3ccccc23)C(=O)N[C@@H](CCN)C(=O)N[C@@H](Cc2cn(CC(=O)O)c3ccccc23)C(=O)N1C` [Example 13152] ({CH2CO}-Y[Pip]NP[Dap]L[Hyp]W[Dab][Trp(1-CH2COOH)][NMeNle][NMeNle]LCG[Dap]([γGlu-C18 diacid])-OH; thioether N-14): 0.3 to 9.9 nM.
The same measure, in the same setting: next, `CCCC[C@H]1C(=O)N(C)[C@@H](CCCC)C(=O)N[C@@H](CC(C)C)C(=O)N[C@H](C(=O)NCC(=O)N[C@@H](CNC(=O)CC[C@H](NC(=O)CCCCCCCCCCCCCCCCC(=O)O)C(=O)O)C(=O)O)CSCC(=O)N[C@@H](Cc2ccc(O)cc2)C(=O)N(C)[C@@H](C)C(=O)N[C@@H](CC(N)=O)C(=O)N2CCC[C@H]2C(=O)N[C@@H](CN)C(=O)N[C@@H](CC(C)C)C(=O)N2C[C@H](O)C[C@H]2C(=O)N[C@@H](Cc2c[nH]c3ccccc23)C(=O)N[C@@H](CCN)C(=O)N[C@@H](Cc2cn(CC(=O)O)c3ccccc23)C(=O)N1C` [Example 13153] ({CH2CO}-Y[NMeA]NP[Dap]L[Hyp]W[Dab][Trp(1-CH2COOH)][NMeNle][NMeNle]LCG[Dap]([γGlu-C18 diacid])-OH; thioether N-14): 0.3 to 9.9 nM; `CCCC[C@H]1C(=O)N(C)[C@@H](CCCC)C(=O)N[C@@H](CC(C)C)C(=O)N[C@H](C(=O)NCC(=O)N[C@@H](CNC(=O)CC[C@H](NC(=O)CCCCCCCCCCCCCCCCC(=O)O)C(=O)O)C(=O)O)CSCC(=O)N[C@@H](Cc2ccc(OC)cc2)C(=O)N2CCCC[C@H]2C(=O)N[C@@H](CC(N)=O)C(=O)N2CCC[C@H]2C(=O)N[C@@H](Cc2c[nH]cn2)C(=O)N[C@@H](CCC(N)=O)C(=O)N2C[C@H](O)C[C@H]2C(=O)N[C@@H](Cc2c[nH]c3ccccc23)C(=O)N[C@@H](CCN)C(=O)N[C@@H](Cc2cn(CC(=O)O)c3ccccc23)C(=O)N1C` [Example 13154] ({CH2CO}-Y(Me)[Pip]NPHQ[Hyp]W[Dab][Trp(1-CH2COOH)][NMeNle][NMeNle]LCG[Dap]([γGlu-C18 diacid])-OH; thioether N-14): 0.3 to 9.9 nM.
